Converted amounts (≈) assume the structure as drawn.
Experiments:
[1] = Primate study, 3-way crossover, oral administration; assay type: in vivo; settings: monkeys, oral 20 mg/kg, three dosing occasions
Experimental: A total of 6 animals were used in a 3-way (2+2+2) crossover design where, on each of the three dosing occasions, 2 of the animals were administered Compound I in powder in bottle (PiB) suspension in vehicle for reconstitution (20 mg/kg), 2 of the animals were administered Compound I solid dispersion suspension (20 mg/kg) of Example 1, while another 2 animals were administered Compound I in a tablet form (20 mg/kg) of Example 2. The vehicle for reconstitution comprised Propylene Glycol USP 80.0% w/w; Ethanol USP 10.0% w/w; Vit E TPGS USP 10.0% w/w for a total of 100.0% w/w.
Dosing for this study was conducted in fasted state. […]
The animals were observed closely during the first 12 hrs after each dosing and once daily on non-dosing days. Body weights were measured and recorded prior to dosing and blood samples for pharmacokinetic profiling were taken at the pre-defined time points for all animals. […] All plasma samples from this study were analyzed by this method and plasma concentration of Compound I were expressed in terms of ng/mL.
The error bars refer to standard deviation. […] AUClast refers to the area under the concentration-time curve from dosing (time 0) to the time of the last measured concentration (24 hours).

[2] = ultracentrifuge free-drug test (drug speciation); assay type: physicochemical
Experimental: The ultracentrifuge free-drug analysis is used to determine the species of dissolved drug that are present for each formulation. This test is performed at several timepoints, i.e., 0, 30, 60 and 90 minutes, during the microcentrifuge test, and it consists of a centrifugation step at 300,000 g that removes any colloidal species that are present, leaving only the free drug and drug in micelle species. In combination with the microcentrifuge data, this allows for determination of free drug and colloidal content at the timepoint where both are tested.

[3] = gastric to intestinal (G-IB) transfer microcentrifuge dissolution test; assay type: physicochemical
Experimental: The solid dispersions described in Example 1 were evaluated in two non-sink dissolution tests to evaluate various aspects of the formulations and how they might be differentiated. The two dissolution tests that were evaluated include a gastric to intestinal (G-IB) transfer microcentrifuge dissolution test and an ultracentrifuge free-drug test.
The gastric-to-intestinal buffer (G-IB) transfer dissolution test is used to measure the supersaturation of drug above the solubility of bulk drug when dosed as a powder, first into media at a lower pH value to imitate a fasted stomach. After 30 minutes of exposure to the gastric media, the samples are transferred into the higher pH media as an imitation of the intestine. The drug concentrations measured in this test are a composite of free drug, drug in micelles, and drug suspended in solution as drug/polymer colloids.
The G-IB dissolution test is performed the same way, but with a 30 minute gastric exposure prior to transferring into the intestinal media. The intestinal media for the G-IB dissolution test is doubly concentrated in terms of buffering and bile salts, so that after the gastric transfer step, the final pH is 6.5 and SIF concentration is 0.5 wt %.
The microcentrifuge dissolution test separates the precipitate (undissolved drug) and total solubilized drug. Total solubilized drug consists of three solubilized species: freely solubilized drug, drug associated with bile salt micelles, and drug associated with polymer (drug-polymer colloids). These three species have different activities in vivo and differentiate formulations. The freely solubilized drug is the smallest species and is the most readily available for absorption. Freely solubilized drug can cross the unstirred mucous boundary layer and be absorbed into the blood through the epithelium. The drug associated with micelles diffuse across the unstirred mucous boundary layer and resupply free drug as it is absorbed. Finally, the drug-polymer colloids also resupply free drug as it is absorbed and can have a contribution to effective diffusion rate. These colloids can be important depending on the rate-limiting step for absorption.
A solid dispersion comprising Compound I: HPMCAS in a ratio of 1:2 (“33.3% HPMCAS”) was prepared from 2.7 grams of the free base hydrate crystalline form B of Compound I and 5.3 grams of HPMCAS (Shin Etsu, L grade, F particle size (≤10 microns particle size)), using a similar procedure of Example 1. Briefly, 2 mg test compound/mL in 0.9 mL gastric buffer was transferred to a final dose of 1 mg/mL in 1.8 mL of 0.5% SIF in PBS at pH 6.5 at room temperature to provide 1.8 mL total volume test solution. The samples were centrifuged at 15,800 g for 1 minute. At specified timepoint, 50 μL aliquot samples were diluted 6× with 50/50 acetonitrile/water and assayed by HPLC.
The solid dispersion was evaluated together with the 25% Compound I: HPMCAS solid dispersion (“25% HPMCAS”) and 95.3% Compound I (freebase hydrate, “Crystalline API”), using the G-IB dissolution test described in Example 3-1.

[4] = intestinal buffer, 0.5% SIF in PBS pH 6.5, 1 mg/mL

Structure (SMILES): COc1cc(F)cc([C@@H](CO)NC(=O)[C@@H](C)N2Cc3ccc(-c4nc(NC5CCOCC5)ncc4Cl)cc3C2=O)c1 [Compound I, (2R)-2-(6-{5-chloro-2-[(tetrahydro-2H-pyran-4-yl)amino]pyrimidin-4-yl}-1-oxo-2,3-dihydro-1H-isoindol-2-yl)-N-[(S)-1-(3-fluoro-5-methoxyphenyl)-2-hydroxyethyl]propanamide]
- clinical signs as a result of treatment [1]: no clinical signs

Structure (SMILES): COc1cc(F)cc([C@@H](CO)NC(=O)[C@@H](C)N2Cc3ccc(-c4nc(NC5CCOCC5)ncc4Cl)cc3C2=O)c1 [Crystalline API]
- Ultra1200 ([2]; ultracentrifuge): 19 µg/mL
- Ultra90 ([2]; ultracentrifuge, 90 minutes): 21 µg/mL
- CmaxGB ([3]; gastric buffer, 2 mg/mL, room temperature): 20000 ng/mL
- C1200 ([3]; intestinal buffer, 0.5% SIF in PBS pH 6.5): 21 µg/mL
- AUC4-90 IB [3, 4]: 1,610 min*μg/mL
- C90 IB [3, 4]: 21 µg/mL
- Cmax90 IB [3, 4]: 21000 ng/mL

Structure (SMILES): COc1cc(F)cc([C@@H](CO)NC(=O)[C@@H](C)N2Cc3ccc(-c4nc(NC5CCOCC5)ncc4Cl)cc3C2=O)c1 [amorphous Compound I]
- solubility ([2]; pH 6.5, fassgf or other biorelevant, FIG. 2 speciation data from the dissolution test): ~15 µg/mL (≈ 25.7 µM)
